Assays:
Format in all cases: in vivo
Design in all cases: key: 5: completely killed; 4: seriously injured; 3: considerably injured; 2: somewhat injured; 1: slightly injured; 0: not injured (normally grown)
broad-leaved weeds = test: Experiment 7 flooded soil treatment: broad-leaved weeds; settings: evaluated 4 weeks after treatment
Description: (§1) Paddy soil (clay loam) was put into a pot so as to have a surface area of 1/15500 ares. Uniformly mixed seeds of several kinds of weeds, viz., nobie (barnyardgrass, Echinochloa spp.), broad-leaved weeds, hotarui (bulrush, Scirpus juncoides) and tamagayatsuri (small-flowered umbrellaplant, Cyperus difformis), were sown in the surface layer of the soil in each pot, and then paddy rice seedlings at the two- or three-leaved stage were transplanted into each pot to a depth of 2 cm, and water was fed into each pot so as to provide a 3 cm deep water layer on the soil surface. After 3 days, in other words at the initial stage of germination of nobie (barnyardgrass, Echinochloa spp.), a predetermined amount of a selected compound obtained in a manner analogous to Example 14 in the form of diluted aqueous solution was dropped into the water layer in each pot. After that, the pots were kept in a glass chamber to allow the paddy rice and the weeds to grow, and after the lapse of 4 weeks from the treatment with the selected compounds, the herbicidal effects and the degree of injury to the paddy rice were evaluated. The evaluation of the herbicidal effects was similarly conducted as that of Experiment 1.

[1] = test system: cockspur (Panicum crus-galli); test: Experiment 8 foliage treatment: cockspur; settings: foliage spray of wettable powder suspension, evaluated 4 weeks after treatment
Experimental: (§2) Upon seedling stage (two- or three-leaved stage) of rice, cockspur (Panicum crus-galli), garden radish, aobiyu (slender amaranth, Amaranthus viridis) and mehishiba (henry crabgrass, Digitaria cliaris) which were grown on a cultivated soil put in pots of 1/15500 ares, a selected compound obtained in a manner analogous to Example 14, in suspended wettable powder, was sprayed to each plant. After that, the pots were kept in a glass chamber to allow each plant to grow, and after the lapse of 4 weeks from the treatment with the selected compounds the herbicidal effects were evaluated. The evaluation of the herbicidal effects was similarly conducted as to that of Experiment 1.

[2] = test system: hotarui (bulrush, Scirpus juncoides); test: Experiment 7 flooded soil treatment: hotarui; settings: evaluated 4 weeks after treatment
Description: as §1

[3] = test system: mehishiba (henry crabgrass, Digitaria cliaris); test: Experiment 8 foliage treatment: mehishiba; settings: foliage spray of wettable powder suspension, evaluated 4 weeks after treatment
Experimental: as §2

garden radish = test: Experiment 8 foliage treatment: garden radish; settings: foliage spray of wettable powder suspension, evaluated 4 weeks after treatment
Experimental: as §2

[4] = test system: tamagayatsuri (small-flowered umbrellaplant, Cyperus difformis); test: Experiment 7 flooded soil treatment: tamagayatsuri; settings: evaluated 4 weeks after treatment
Description: as §1

[5] = test system: aobiyu (slender amaranth, Amaranthus viridis); test: Experiment 8 foliage treatment: aobiyu; settings: foliage spray of wettable powder suspension, evaluated 4 weeks after treatment
Experimental: as §2

[6] = test system: nobie (barnyardgrass, Echinochloa spp.); test: Experiment 7 flooded soil treatment: nobie; settings: evaluated 4 weeks after treatment
Description: as §1

rice = test: Experiment 8 foliage treatment: rice; settings: foliage spray of wettable powder suspension, evaluated 4 weeks after treatment
Experimental: as §2

paddy rice = test: Experiment 7 flooded soil treatment: injury to paddy rice; settings: evaluated 4 weeks after treatment
Description: as §1

| Compound | Herbicidal Effect broad-leaved weed (broad-leaved weeds; 6.25 g/10a) | Herbicidal Effect broad-leaved weed (broad-leaved weeds; 12.5 g/10a) | Herbicidal Effect cockspur ([1]; 40 g/10a) | Herbicidal Effect cockspur ([1]; 80 g/10a) | Herbicidal Effect hotarui ([2]; 6.25 g/10a) | Herbicidal Effect hotarui ([2]; 12.5 g/10a) | Herbicidal Effect mehishiba ([3]; 40 g/10a) | Herbicidal Effect mehishiba ([3]; 80 g/10a) | Herbicidal Effect garden radish (garden radish; 40 g/10a) | Herbicidal Effect garden radish (garden radish; 80 g/10a) | Herbicidal Effect tamagayatsuri ([4]; 6.25 g/10a) | Herbicidal Effect tamagayatsuri ([4]; 12.5 g/10a) | Herbicidal Effect aobiyu ([5]; 40 g/10a) | Herbicidal Effect aobiyu ([5]; 80 g/10a) | Herbicidal Effect nobie ([6]; 6.25 g/10a) | Herbicidal Effect nobie ([6]; 12.5 g/10a) | Herbicidal Effect rice (rice; 40 g/10a) | Herbicidal Effect rice (rice; 80 g/10a) | Injury of Paddy (paddy rice; 6.25 g/10a) | Injury of Paddy (paddy rice; 12.5 g/10a) |
| --- | --- | --- | --- | --- | --- | --- | --- | --- | --- | --- | --- | --- | --- | --- | --- | --- | --- | --- | --- | --- |
| C#CC(C)Oc1cc(N(C(=O)C2=C(C(=O)OCCOC)CCCC2)C(=O)c2cccs2)c(F)cc1Cl (stereo not drawn) [compound 94] | 5 | 5 | 1 | 1 | 5 | 5 | 1 | 1 | 5 | 5 | 5 | 5 | 5 | 5 | 5 | 5 | 1 | 1 | 0.5 | 0.5 |
| C#CC(C)Oc1cc(N(C(=O)C2=C(C(=O)OC)CCCC2)C(=O)c2sccc2C)c(F)cc1Cl (stereo not drawn) [compound 95] | 5 | 5 | 1 | 1 | 4 | 4 | 1 | 1 | 4 | 4 | 5 | 5 | 5 | 5 | 5 | 5 | 1 | 1 | 0 | 0 |
| C#CC(C)Oc1cc(N(C(=O)C2=C(C(=O)OC)CCCC2)C(=O)c2ccc(C)s2)c(F)cc1Cl (stereo not drawn) [compound 96] | 5 | 5 | 1 | 1 | 4 | 4 | 1 | 1 | 5 | 5 | 5 | 5 | 5 | 5 | 5 | 5 | 1 | 1 | 0 | 0.5 |
| COC(=O)C1=C(C(=O)N(C(=O)c2cccs2)c2cc(OC3CCCC3)c(Cl)cc2F)CCCC1 [compound 98] | 5 | 5 | 1 | 1 | 4 | 5 | 1 | 1 | 4 | 4 | 5 | 5 | 4 | 5 | 5 | 5 | 1 | 1 | 0.5 | 0.5 |
| COC(=O)COc1cc(N(C(=O)C2=C(C(=O)OC)CCCC2)C(=O)c2cccs2)c(F)cc1Cl [compound 99] | 5 | 5 | 1 | 1 | 4 | 4 | 1 | 1 | 4 | 4 | 4 | 5 | 4 | 5 | 5 | 5 | 1 | 1 | 0 | 0 |
| C#CC(C)Oc1cc(N(C(=O)C2=C(C(=O)OCCC)CCCC2)C(=O)c2ccsc2)c(F)cc1Cl (stereo not drawn) [compound 101] | 5 | 5 | 1 | 1 | 4 | 4 | 1 | 1 | 5 | 5 | 5 | 5 | 5 | 5 | 5 | 5 | 1 | 1 | 0.5 | 1 |

Reference: US6337417B1, “N-phenyltetrahydrophthalamic acid derivatives, methods of producing same, and herbicides containing same as effective components” (Central Glass Co., Ltd., priority 1994, dated 2002)
